Laboratory results published in the NIST ThermoML archive (doi:10.1016/j.fluid.2010.12.008).
± gives the expanded uncertainty stated by the source. Each block holds one compound with its values, some of them ahead of it.

Columns and labels:
[1] = for Normal melting temperature: Crystal 1
[2] = Molar enthalpy of transition or fusion; details: DSC

Normal melting temperature ([1]; visual observation): 7.00 ± 1.1 °C
SMILES: CCCCCCCCCCO [decan-1-ol]

Normal melting temperature ([1]; visual observation): -34.60 ± 1.1 °C
SMILES: CCCCCCCO [heptan-1-ol]

Normal melting temperature ([1]; visual observation): -16.00 ± 1.1 °C
SMILES: CCCCCCCCO [octan-1-ol]

Normal melting temperature ([1]; visual observation): 0.00 ± 1.1 °C
SMILES: O [water]

The next lines start with the compound.

SMILES: CC[N+]1(C)CCCCC1.O=S(=O)([N-]S(=O)(=O)C(F)(F)F)C(F)(F)F
Normal melting temperature ([1]; DTA): 84.89 ± 0.5 °C
Normal melting temperature ([1]; visual observation): 84.56 ± 0.5 °C
Triple point temperature ([1]; Crystal 2, visual observation): 289.6 ± 0.5 K
Triple point temperature ([1]; Crystal 3, DTA): 215.8 ± 0.5 K
Molar enthalpy of transition or fusion ([2]; Crystal 1): 3.97 ± 0.124 kcal/mol
Molar enthalpy of transition or fusion ([2]; Crystal 2): 0.844 ± 0.0454 kcal/mol
Molar enthalpy of transition or fusion ([2]; Crystal 3): 0.586 ± 0.0406 kcal/mol

SMILES: CCCC[N+]1(C)CCCCC1.N#C[S-] [1-butyl-1-methylpiperidinium thiocyanate]
Normal melting temperature ([1]; DTA): 31.17 ± 0.5 °C
Triple point temperature ([1]; Crystal 2, DTA): 274.2 ± 0.5 K
Glass transition temperature ([1]; Glass, DTA): -71.8 ± 10 °C
Molar enthalpy of transition or fusion ([2]; Crystal 1): 0.722 ± 0.0478 kcal/mol
Molar enthalpy of transition or fusion ([2]; Crystal 2): 3.65 ± 0.117 kcal/mol

SMILES: CCCCCCCCCCCCO [dodecan-1-ol]
Normal melting temperature ([1]; visual observation): 24.00 ± 1.1 °C

SMILES: CCCCCCO [hexan-1-ol]
Normal melting temperature ([1]; visual observation): -45.00 ± 1.1 °C
